The structures appear in SMILES notation. pIC50: −log10 of the molar value. Where two headings read alike, the source gives them in different places. Bounds are passed on as bounds.

This is an account of results in patent US5153218A, “N,N',N'-trisubstituted-bis-amino-3-methylene-2,4(3H,5H)-furandione inhibitors of acyl-CoA:cholesterol-acyl transferase” (American Home Products Corporation, priority 1991, dated 1992).

The subject of test [1] is 14C-Cholesterol Absorption. As to conditions: po.
Protocol: Representative compounds were further tested in vivo to establish the percent inhibition of cholesterol absorption. In this study, normal rats were dosed (oral gavage) with ^14 C-cholesterol plus the test compound. Blood samples taken at six hours and/or intermittently up to twenty-four hours were analyzed and the percent inhibition of cholesterol absorption was calculated.
Test [2] concerns acyl-coenzyme A: cholesterol acyltransferase. As to the kind of experiment: inhibition of acyl-coenzyme A: cholesterol acyltransferase in vitro (intracellular cholesterol esterification, procedure of Ross et al.). The class given is cell-based. As to conditions: for percent inhibition at a single concentration: unit assumed. An excerpt: The ability of the compounds of this invention to inhibit acyl-coenzyme A: cholesterol acyltransferase was established in vitro by initially showing that they inhibited intracellular cholesterol esterification by subjecting them to the standard experimental test procedure of Ross et al., J. Biol. Chem. 259 815 (1984).

In test [3] the test system is Plasma Cholesterol. As to the kind of experiment: in vivo decrease of plasma cholesterol in cholesterol-cholic acid fed rats. As to conditions: oral gavage, four days. As for the experimental part: In addition, representative compounds were studied in vivo in cholesterol-cholic acid fed rats to determine the percent decrease of cholesterol in their plasma. This study involves rats which are, prior to testing, trained for one week to eat over a four hour time period each day. Upon initiation of the experiment, the rats diet is supplemented with 1.0 percent cholesterol and 0.25 percent cholic acid. The rats are dosed with the test compound by oral gavage just prior to and just following the four hour feeding period. This is repeated for four days. On the fifth day, the rats are sacrificed and the total plasma cholesterol content is determined. The percent decrease in elevated plasma cholesterol levels is calculated in comparison with normal-fed controls.

In the case of `CCCCCCCN(Cc1ccc(C(C)(C)C)cc1)C(Nc1ccc(F)cc1)=C1C(=O)COC1=O` [Example 1, 3-[[[[4-(1,1-Dimethylethyl)phenyl]methyl]heptylamino][(4-fluorophenyl)amino]methylene]-2,4(3H,5H)-furandione], the “% Inhibition of Absorption” value in test [1] (200 mg/kg) is reported as -74%. This molecule also had a pIC50 in test [2] of 5.22. Further, in test [2] (Conc. 50 mM (so in the source)), the percent inhibition at a single concentration came out at 96%.
In test [2] (Conc. 50 mM (so in the source)), `CCCCCCN(CCCCCC)C(Nc1ccc(F)cc1)=C1C(=O)COC1=O` [Example 2, 3-[(Dihexylamino)[(4-fluorophenyl)amino]methylene]-2,4(3H,5H)furandione] registered a percent inhibition at a single concentration of 57%.
Take `CCCCCCCN(Cc1ccc(C(C)(C)C)cc1)C(Nc1ccc(OC)cc1OC)=C1C(=O)COC1=O` [Example 3]: the pIC50 in test [2] was 5.40. Moreover, in test [2] (Conc. 50 mM (so in the source)), the percent inhibition at a single concentration was 90%.
Regarding `CCCCCCCC/C=C\CCCCCCCCNC(Nc1ccc(OC)cc1OC)=C1C(=O)COC1=O` [Example 4, 3-[[(2,4-Dimethoxyphenyl)amino]((Z)-9-octadecenylamino)methylene]-2,4(3H,5H)-furandione], the “% Inhibition of Absorption” value in test [1] (200 mg/kg) is given as -14%. This molecule also displayed a percent inhibition at a single concentration in test [2] (Conc. 50 mM (so in the source)) of 63%.
`CCCCCCCN(Cc1ccc(CC(C)(C)C)cc1)C(Nc1c(OC)cc(OC)cc1OC)=C1C(=O)COC1=O` [Example 5, 3-[[[4-(2,2-Dimethylpropyl)phenylmethyl]heptylamino][(2,4,6-trimethoxyphenyl)amino]methylene]-2,4(3H,5H)-furandione] showed a negative logarithm of the IC50 (pIC50) in test [2] of 4.96. The percent inhibition at a single concentration in test [2] (Conc. 25 mM (so in the source)) stood at 67%.
Molecule `CCCCCCCN(Cc1ccc(OCCC(C)C)cc1)C(Nc1ccc(OC)cc1OC)=C1C(=O)COC1=O` [Example 6, 3-[[(2,4-Dimethoxyphenyl)amino][(heptyl)[[4-(3-methylbutoxy)phenyl]methyl]amino]methylene]-2,4(3H,5H)-furandione] had a pIC50 in test [2] of 6.40. The same molecule showed a percent inhibition at a single concentration in test [2] (Conc. 25 mM (so in the source)) of 99%.
Turning to `CCCCCC(C)N(Cc1ccc(CC(C)(C)C)cc1)C(Nc1ccc(OC)cc1OC)=C1C(=O)COC1=O` (centres unmarked) [Example 7, 3-[[(2,4-Dimethoxyphenyl]amino][[[4-(2,2-dimethylpropyl)phenyl]methyl](1-methylhexyl)-amino]methylene]2,4(3H,5H)-furandione], the “% Inhibition of Absorption” value in test [1] (20 mg/kg) was -62%. Besides, the “% Decrease in Plasma Cholesterol” value in test [3] (40 mg/kg) is on record as -26%. This molecule had a pIC50 in test [2] of 6.04. Also, the percent inhibition at a single concentration in test [2] (Conc. 25 mM (so in the source)) worked out at 98%.
With `CCCCCC(C)N(Cc1ccc(CC(C)(C)C)cc1)C(Nc1cc(C(C)(C)C)c(O)c(C(C)(C)C)c1)=C1C(=O)COC1=O` (centres unmarked) [Example 8], in test [1] (20 mg/kg), the “% Inhibition of Absorption” value is recorded as -72%. For the same molecule, the “% Decrease in Plasma Cholesterol” value in test [3] (20 mg/kg) was -71%. This molecule also showed a pIC50 in test [2] of 6.72. The molecule also came in with a percent inhibition at a single concentration in test [2] (Conc. 25 mM (so in the source)) of 99%.
In turn, `CCCCCCN(CCCCCC)C(Nc1ccc(OC)cc1OC)=C1C(=O)COC1=O` [Example 9, 3-[(Dihexylamino)[(2,4-dimethoxyphenyl)amino]methylene]-2,4(3H,5H)-furandione] showed a pIC50 in test [2] of 4.60. Also, the percent inhibition at a single concentration in test [2] (Conc. 50 mM (so in the source)) was 87%.
Consider `CCCCCCCC/C=C\CCCCCCCCNC(Nc1ccc(F)cc1)=C1C(=O)COC1=O` [Example 10, 3-[[(4-Fluorophenyl)amino]((Z)-9-octadecenylamino)methylene]2,4(3H,5H)-furandione], for which the negative-log IC50 (pIC50) in test [2] is less than 4.52. For the same molecule, in test [2] (Conc. 50 mM (so in the source)), the percent inhibition at a single concentration stood at 61%.
The molecule `COc1ccc(NC(=C2C(=O)COC2=O)N(CCc2ccccc2)Cc2ccccc2)c(OC)c1` [Example 11, 3-[[(2,4-Dimethoxyphenyl)amino][(2-phenylethyl)(phenylmethyl)amino]methylene]-2,4(3H,5H)-furandione] showed a pIC50 in test [2] of less than 4.52. The percent inhibition at a single concentration in test [2] (Conc. 50 mM (so in the source)) was 72%.
Molecule `CCCCCCN(CCCCCC)C(Nc1ccc(-c2ccccc2)cc1)=C1C(=O)COC1=O` [Example 12, 3-[([1,1'-Biphenyl]-4-ylamino)(dihexylamino)methylene]-2,4(3H,5H)-furandione] had a pIC50 in test [2] of 4.57. Also, the percent inhibition at a single concentration in test [2] (Conc. 50 mM (so in the source)) is 90%.
As to `CCCCCCCN(Cc1ccc(C(C)(C)C)cc1)C(Nc1ccc(-c2ccccc2)cc1)=C1C(=O)COC1=O` [Example 13, 3-[([1,1'-Biphenyl]-4-ylamino)[[[4-(1,1-dimethylethyl)phenyl]methyl]heptylamino]methylene]-2,4(3H,5H)-furandione], the negative-log IC50 (pIC50) in test [2] is 4.92. This molecule also yielded a percent inhibition at a single concentration in test [2] (Conc. 50 mM (so in the source)) of 91%.
In test [2] (Conc. 25 mM (so in the source)), `CCCCCCCN(Cc1ccc(C(C)(C)C)cc1)C(Nc1ccc(F)cc1F)=C1C(=O)COC1=O` [Example 14, 3-[[(2,4-Difluorophenyl)amino][[[4-(1,1-dimethylethyl)phenyl]methyl]heptylamino]methylene]-2,4(3H,5H)-furandione] returned a percent inhibition at a single concentration of 39%.
For `CCCCCCCN(Cc1ccc(C(C)(C)C)cc1)C(Nc1c(C)cc(C)cc1C)=C1C(=O)COC1=O` [Example 15, 3-[[[[4-(1,1-Dimethylethyl)phenyl]methyl]heptylamino][(2,4,6-trimethylphenyl)amino]methylene]-2,4(3H,5H)-furandione], the percent inhibition at a single concentration in test [2] (Conc. 25 mM (so in the source)) stood at 73%.
On to `CCCCCCCN(Cc1ccc(CCCCCC)cc1)C(Nc1ccc(C(F)(F)F)cc1)=C1C(=O)COC1=O` [Example 16, 3-[[Heptyl[(4-hexylphenyl)methyl]amino][[4-(trifluoromethyl)phenyl]amino]methylene]-2,4(3H,5H)-furandione], for which the percent inhibition at a single concentration in test [2] (Conc. 25 mM (so in the source)) is 56%.
As to `CCCCCCCN(Cc1ccc(C(C)(C)C)cc1)C(Nc1ccc(Cl)cc1)=C1C(=O)COC1=O` [Example 17, 3-[[(4-Chlorophenyl)amino][[[4-(1,1-dimethylethyl)phenyl]methyl]heptylamino]methylene]-2,4(3H,5H)-furandione], the pIC50 in test [2] is 4.62. The same molecule showed a percent inhibition at a single concentration in test [2] (Conc. 25 mM (so in the source)) of 84%.
As for `CCCCCCCC/C=C\CCCCCCCCN(Cc1ccc(C(C)(C)C)cc1)C(Nc1ccc(F)cc1)=C1C(=O)COC1=O` [Example 18, 3-[[[[4-(1,1-Dimethylethyl)phenyl]methyl]((Z)-9-octadecenyl)amino][(4-fluorophenyl)amino]methylene]-2,4(3H,5H)-furandione], the percent inhibition at a single concentration in test [2] (Conc. 25 mM (so in the source)) was determined as 44%.
`CCCCCCCN(Cc1ccc(C(C)(C)C)cc1)C(Nc1c(C)cc(N(C)C)cc1C)=C1C(=O)COC1=O` [Example 19] gave a pIC50 in test [2] of 5.02. Also, the percent inhibition at a single concentration in test [2] (Conc. 25 mM (so in the source)) was determined as 77%.
As to `CCCCCC(C)N(Cc1ccc(C(C)(C)C)cc1)C(Nc1ccc(OC)cc1OC)=C1C(=O)COC1=O` (centres unmarked) [Example 20, 3-[[(2,4-Dimethoxyphenyl)amino][[[4-(1,1-dimethylethyl)phenyl]methyl](1-methylhexyl)amino]methylene]-2,4(3H,5H)-furandione], in test [2], the pIC50 was 5.82. For the same molecule, in test [2] (Conc. 25 mM (so in the source)), the percent inhibition at a single concentration was 94%.
For the molecule `CCCCCC(C)N(Cc1ccc(OCCC(C)C)cc1)C(Nc1ccc(OC)cc1OC)=C1C(=O)COC1=O` (centres unmarked) [Example 21, 3-[[(2,4-Dimethoxyphenyl)amino][[[4-(3-methylbutoxy)phenyl]methyl](1-methylhexyl)amino]methylene]-2,4(3H,5H)-furandione], the “% Decrease in Plasma Cholesterol” value in test [3] (20 mg/kg) was -23%. Besides, in test [2], the negative logarithm of the IC50 (pIC50) is 5.31. In test [2] (Conc. 25 mM (so in the source)), this molecule yielded a percent inhibition at a single concentration of 97%.
Regarding `CCCCCCC(C)N(Cc1ccc(CC(C)(C)C)cc1)C(Nc1cc(C(C)(C)C)c(O)c(C(C)(C)C)c1)=C1C(=O)COC1=O` (centres unmarked) [Example 22, 3-[[[3,5-Bis(1,1-dimethylethyl)-4-hydroxyphenyl]amino][[[4-(2,2-dimethylpropyl)phenyl]methyl](1-methylheptyl)amino]methylene]-2,4(3H,5H)-furandione], the “% Decrease in Plasma Cholesterol” value in test [3] (20 mg/kg) is -80%. Besides, the pIC50 in test [2] was 7.15. This molecule yielded a percent inhibition at a single concentration in test [2] (Conc. 25 mM (so in the source)) of 97%.
As to `CCCCCCN(Cc1ccc(CC(C)C)cc1)C(Nc1cc(C(C)(C)C)c(O)c(C(C)(C)C)c1)=C1C(=O)COC1=O` [Example 23], the percent inhibition at a single concentration in test [2] (Conc. 25 mM (so in the source)) came to 88%.
